For 24 compounds, IC50 results are on record in patent US12209072B2, “Cyclopentyl acids as LPA antagonists” (BRISTOL-MYERS SQUIBB COMPANY, priority 2018, dated 2025).

The term IC50 denotes the midpoint of a concentration-inhibition curve.

In this experiment the target is T1, human LPA1 (Homo sapiens, UniProt Q92633).
T1 construct: expressed in transfected cells; host or cells: Chinese hamster ovary (CHO) cells
T1 sequence (Q92633 whole entry): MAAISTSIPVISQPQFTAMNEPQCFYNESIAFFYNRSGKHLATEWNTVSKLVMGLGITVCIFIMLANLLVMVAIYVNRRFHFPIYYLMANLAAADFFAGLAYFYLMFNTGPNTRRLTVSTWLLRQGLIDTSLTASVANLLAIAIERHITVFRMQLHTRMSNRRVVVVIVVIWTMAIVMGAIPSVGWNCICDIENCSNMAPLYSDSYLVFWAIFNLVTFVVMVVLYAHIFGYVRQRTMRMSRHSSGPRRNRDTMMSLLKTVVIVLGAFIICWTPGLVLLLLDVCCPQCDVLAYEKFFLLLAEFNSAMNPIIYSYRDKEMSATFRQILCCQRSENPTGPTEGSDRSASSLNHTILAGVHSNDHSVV
The experiment can be described thus: LPA1 functional antagonist assay (LPA-induced calcium flux). The settings on record: CHO cells overexpressing human LPA1; inhibition of calcium flux induced by 10 nM LPA; read-out: hLPA1 IC50. Format: cell-based. How it is done:
The effectiveness of compounds of the present invention as LPA1 inhibitors can be determined in an LPA1 functional antagonist assay as follows:
Chinese hamster ovary cells overexpressing human LPA1 were plated overnight (15,000 cells/well) in poly-D-lysine coated 384-well microplates (Greiner bio-one, Cat #781946) in DMEM/F12 medium (Gibco, Cat #11039). Following overnight culture, cells were loaded with calcium indicator dye (AAT Bioquest Inc, Cat #34601) for 30 minutes at 37° C. The cells were then equilibrated to room temperature for 30 minutes before the assay. Test compounds solubilized in DMSO were transferred to 384 well non-binding surface plates (Corning, Cat #3575) using the Labcyte Echo acoustic dispense and diluted with assay buffer [1×HBSS with calcium/magnesium (Gibco Cat #14025-092), 20 mM HEPES (Gibco Cat #15630-080) and 0.1% fatty acid free BSA (Sigma Cat #A9205)] to a final concentration of 0.5% DMSO. Diluted compounds were added to the cells by FDSS6000 (Hamamatsu) at final concentrations ranging from 0.08 nM to 5 μM. and were then incubated for 20 min at room temperature at which time LPA (Avanti Polar Lipids Cat #857130C) was added at final concentrations of 10 nM to stimulate the cells. The compound IC50 value was defined as the concentration of test compound which inhibited 50% of the calcium flux induced by LPA alone. IC50 values were determined by fitting data to a 4-parameter logistic equation (GraphPad Prism, San Diego CA).
(In general: A change in cytosolic calcium serves as a functional read-out for many receptors and channels.)
For `Cc1noc(-c2ccc(OC3CCC(C(=O)O)C3)cn2)c1CNc1nccc(-c2ccccc2)n1` (single isomer, unassigned) [Example 45], the IC50 amounted to 17 nM.

Consider `Cc1noc(-c2ccc(O[C@@H]3CC[C@@H](CC(=O)O)C3)cn2)c1CNc1nccc(-c2ccccn2)n1` (racemic) [Example 29, (±)2-(Trans-3-((6-(3-methyl-4-(((4-(pyridin-2-yl)pyrimidin-2-yl)amino)methyl)isoxazol-5-yl)pyridin-3-yl)oxy)cyclopentyl)acetic Acid], for which the IC50 was 54 nM. In the case of `CCc1nc(-c2nnn(C)c2COC(=O)N(C)CC2CCC2)ccc1O[C@@H]1CC[C@@H](CC(=O)O)C1` (racemic) [Example 87, (±)-2-((trans)-3-((6-(5-((((cyclo-butylmethyl)(methyl)carba-moyl)oxy)methyl)-1-methyl-1H-1,2,3-triazol-4-yl)-2-ethyl-pyridin-3-yl)oxy)cyclopentyl)acetic acid] it was 46 nM; in that of `CCC1(COC(=O)NCc2c(-c3ccc(O[C@H]4CC[C@H](CC(=O)O)C4)c(C)n3)nnn2C)CC1` (racemic) [Example 60, (±)-trans-2-[3-[(6-{5-[({[(1-ethyl-cyclopropyl)methoxy]carbonyl}amino)methyl]-1-methyl-1H-1,2,3-triazol-4-yl}-2-methylpyridin-3-yl)oxy]cyclopentyl]acetic acid], 264 nM.

On to `Cc1nc(-c2nnn(C)c2COC(=O)N(C)CC2CCC2)ccc1OC[C@H]1CC[C@@H](C(=O)O)C1` (single isomer, unassigned) [Example 32], for which the IC50 was determined as 9.7 nM. In the case of `Cc1nc(-c2nnn(C)c2COC(=O)N(C)CC(C)C)ccc1O[C@@H]1CC[C@@H](C(=O)O)C1` (racemic) [Example 24, (±)-trans-3-((6-(5-(((isobutyl(methyl)carbamoyl)oxy)methyl)-1-methyl-1H-1,2,3-triazol-4-yl)-2-methylpyridin-3-yl)oxy)cyclopentane carboxylic acid] it was 1160 nM; in that of `Cc1nc(-c2nnn(C)c2COC(=O)N(C)CC2CCC2)ccc1O[C@H]1CC[C@H](CC(=O)O)C1` (single isomer, unassigned) [Example 7, (±)-Trans-2-((1,3)-3-((6-(5-((((cyclobutylmethyl)(methyl)carbamoyl)oxy)methyl)-1-methyl-1H-1,2,3-triazol-4-yl)-2-methylpyridin-3-yl)oxy)cyclopentyl) acetic Acid], 750 nM.

Turning to `Cc1noc(-c2ccc(O[C@H]3CC[C@H](C(=O)O)C3)cc2)c1NC(=O)O[C@H](C)c1ccccc1` (single isomer, unassigned) [Example 2], the IC50 was found to be 31 nM. Then `Cc1nc(-c2cnn(C)c2CNC(=O)OCc2ccccc2)cnc1O[C@H]1CC[C@H](C(=O)O)C1` (racemic) [Example 18, (±)-Trans-3-((5-(5-((((benzyloxy)carbonyl)amino)methyl)-1-methyl-1H-pyrazol-4-yl)-3-methylpyrazin-2-yl)oxy)cyclopentanecarboxylic Acid], with 369 nM. On to `Cc1nc(-c2onc(C)c2COC(=O)N(C)C2CCCC2)ccc1O[C@@H]1CC[C@@H](CC(=O)O)C1` (racemic) [Example 8, (±)-Trans-2-(3-((6-(4-(((cyclopentyl(methyl)carbamoyl)oxy)methyl)-3-methylisoxazol-5-yl)-2-methylpyridin-3-yl)oxy)cyclopentyl)acetic Acid], for which the half-maximal inhibitory concentration (IC50) came to 13 nM. Then `CCCCN(C)C(=O)OCc1c(-c2nc(C)c(O[C@H]3CC[C@H](CC(=O)O)C3)cc2F)nnn1C` (racemic) [Example 68, (±)-trans-2-[3-({6-[5-({[butyl(methyl)carbamoyl]oxy}methyl)-1-methyl-1H-1,2,3-triazol-4-yl]-5-fluoro-2-methyl-pyridin-3-yl}oxy)cyclopentyl]acetic acid], with 147 nM; and `Cc1nc(-c2nnn(C)c2COC(=O)N(C)CC2CCC2)ccc1O[C@H]1CC[C@H](CC(=O)O)C1` (single isomer, unassigned) [Example 6, (±)-Trans-2-((1,3)-3-((6-(5-((((cyclobutylmethyl)(methyl)carbamoyl)oxy)methyl)-1-methyl-1H-1,2,3-triazol-4-yl)-2-methylpyridin-3-yl)oxy)cyclopentyl) acetic Acid], with 11 nM; and `Cc1nc(-c2nnn(C)c2CNc2nccc(-c3ccccn3)n2)ccc1O[C@@H]1CC[C@@H](CC(=O)O)C1` (relative stereo) [Example 38, 2-(trans-3-((2-methyl-6-(1-methyl-5-(((4-(pyridin-2-yl)pyrimidin-2-yl)amino)methyl)-1H-1,2,3-triazol-4-yl)pyridin-3-yl)oxy)cyclopentyl)acetic acid], with 579 nM. `Cc1nc(-c2nnn(C)c2COC(=O)N(C)CC2CCC2)ccc1O[C@H]1CC[C@H](C(=O)O)C1` (single isomer, unassigned) [Example 78, Trans-(1,3)-3-({6-[5-({[(cyclobutyl-methyl)(methyl)carbamoyl]oxy}methyl)-1-methyl-1H-1,2,3-triazol-4-yl]-2-methylpyridin-3-yl}oxy)cyclopentane-1-carboxylic acid]: the half-inhibitory concentration (IC50) was found to be 28 nM.

As to `Cc1nc(-c2nnn(C)c2COC(=O)N(C)CC2CC2)ccc1O[C@H]1CCC[C@H]1CC(=O)O` (racemic) [Example 89, (±)-cis-2-(2-((6-(5-((((cyclopropyl-methyl)(methyl)carbamoyl)oxy)methyl)-1-methyl-1H-1,2,3-triazol-4-yl)-2-methylpyridin-3-yl)oxy)cyclopentyl)acetic acid], the IC50 turned out to be 291 nM. In the case of `Cc1nc(-c2cnn(C)c2CNC(=O)OCc2ccccc2)cnc1O[C@H]1CC[C@H](C(=O)O)C1` (single isomer, unassigned) [Example 19, Trans-3-((5-(5-((((benzyloxy)carbonyl)amino)methyl)-1-methyl-1H-pyrazol-4-yl)-3-methylpyrazin-2-yl)oxy)cyclopentanecarboxylic Acid] it was 202 nM. With `Cc1nc(-c2nnn(C)c2CNc2nccc(C(C)C)n2)ccc1OC[C@@H]1CC[C@H](C(=O)O)C1` (relative stereo) [Example 39, cis-3-(((6-(5-(((4-isopropylpyrimidin-2-yl)amino)methyl)-1-methyl-1H-1,2,3-triazol-4-yl)-2-methylpyridin-3-yl)oxy)methyl)cyclopentane-1-carboxylic acid], the IC50 is 164 nM. For `CC(C)CCN(C)C(=O)OCc1c(-c2ccc(O[C@H]3CC[C@@H](C(=O)O)C3)cc2)nnn1C` (relative stereo) [Example 12, Cis-3-(4-(5-(((isopentyl(methyl)carbamoyl)oxy)methyl)-1-methyl-1H-1,2,3-triazol-4-yl)phenoxy)cyclo-pentane-1-carboxylic acid], the IC50 stood at 448 nM. In the case of `Cc1noc(-c2ccc(O[C@H]3CC[C@@H](C(=O)O)C3)cc2)c1COC(=O)N(C)C1CCCC1` (racemic) [Example 71, (±)-cis-3-{4-[4-({[cyclopentyl(methyl)carbamoyl]oxy}methyl)-3-methyl-1,2-oxazol-5-yl]phenoxy}cyclopentane-1-carboxylic acid] it was 205 nM; in that of `CCCC1(N(C)C(=O)OCc2c(-c3ccc(O[C@@H]4CC[C@@H](CC(=O)O)C4)c(C)n3)nnn2C)CC1` (racemic) [Example 10, (±)-Trans-2-(3-((2-methyl-6-(1-methyl-5-(((methyl(1-propylcyclopropyl)carbamoyl)oxy)methyl)-1H-1,2,3-triazol-4-yl)pyridin-3-yl)oxy)cyclopentyl)acetic Acid], 372 nM; in that of `Cc1nc(-c2nnn(C)c2CNc2nccc(C(C)C)n2)ccc1O[C@@H]1CC[C@@H](CC(=O)O)C1` (relative stereo) [Example 40, 2-(trans-3-((6-(5-(((4-isopropylpyrimidin-2-yl)amino)methyl)-1-methyl-1H-1,2,3-triazol-4-yl)-2-methylpyridin-3-yl)oxy)cyclopentyl)acetic acid], 92 nM. For `Cc1nc(-c2nnn(C)c2COC(=O)N2CC3(CCC3)C2)ccc1O[C@H]1CC[C@H](CC(=O)O)C1` (racemic) [Example 66, (±)-trans-2-[3-({6-[5-({2-azaspiro[3.3]heptane-2-carbonyloxy}methyl)-1-methyl-1H-1,2,3-triazol-4-yl]-2-methylpyridin-3-yl}oxy)cyclopentyl]acetic acid], the IC50 came to 452 nM. In the case of `Cc1nc(-c2nnn(C)c2COC(=O)N(C)CC2CCC2)cnc1O[C@H]1CC[C@H](CC(=O)O)C1` (single isomer, unassigned) [Example 28, 2-(trans-3-((5-(5-((((cyclobutylmethyl)(methyl)carbamoyl)oxy)methyl)-1-methyl-1H-1,2,3-triazol-4-yl)-3-methylpyrazin-2-yl)oxy)cyclopentyl)acetic Acid] it was 3750 nM; in that of `Cc1nc(-c2onc(C)c2CNc2nccc(-c3ccccn3)n2)ccc1OC[C@@H]1CC[C@H](C(=O)O)C1` (relative stereo) [Example 35, cis-3-(((2-methyl-6-(3-methyl-4-(((4-(pyridin-2-yl)pyrimidin-2-yl)amino)methyl)isoxazol-5-yl)pyridin-3-yl)oxy)methyl)cyclopentane-1-carboxylic acid], 9 nM.
